Experimental findings from patent US5324648A, “Substituted isocoumarins as serine protease inhibitors and anti-inflammatory agents” (Georgia Tech Research Corporation, priority 1992, dated 1994) are described below.

Read-outs that look alike come from different tables or passages of the source.

Assay [1] concerns the target T1, porcine pancreatic elastase (PPE) (Sus scrofa, UniProt P00772).
T1 construct: from tissue; host or cells: porcine pancreas (from the name)
Nature of the assay: Inactivation of porcine pancreatic elastase (PPE). Type of assay: biochemical.

In assay [2] the target is T2, human leukocyte elastase (HLE) (Homo sapiens, UniProt P08246).
T2 construct: from tissue; host or cells: human leukocytes (from the name)
T2 sequence (P08246 30-267): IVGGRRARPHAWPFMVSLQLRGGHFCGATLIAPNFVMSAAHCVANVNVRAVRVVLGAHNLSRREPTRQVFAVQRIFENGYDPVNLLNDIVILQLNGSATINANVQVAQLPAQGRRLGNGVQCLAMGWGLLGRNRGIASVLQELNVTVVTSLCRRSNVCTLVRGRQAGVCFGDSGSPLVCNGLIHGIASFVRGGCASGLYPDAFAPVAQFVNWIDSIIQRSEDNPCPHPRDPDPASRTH
Nature of the assay: Inactivation of human leukocyte elastase (HLE). The class given is biochemical.
Method: Inactivation rates of serine proteases by substituted isocoumarins were measured by the incubation method. An aliquot of inhibitor (25 or 50 μl) in Me2 SO was added to a buffered enzyme solution (0.01-2.3 μM) to initiate the inactivation. Aliquots (50 μl) were withdrawn at various intervals and the residual enzymatic activity was measured. Me2 SO concentration in the reaction mixture was 8-12% (v/v). 0.1 Hepes, 0.01M CaCl2, pH 7.5 buffer was utilized for trypsin and coagulation enzymes. 0.1M Hepes, 0.5M NaCl, pH 7.5 was utilized for other serine proteases. […] Peptide thioesters or peptide nitroanilides with appropriate sequence were used as substrates for various serine proteases. All peptide thioester hydrolysis rates were measured with assay mixtures containing 4,4'-dithiodipyridine (ε324 =19800M^-1 cm^-1 ; Grasetti & Murray, Arch. Biochem. Biophys. 119, pp 41-49 (1967)). Peptide 4-nitroanilide nitroanilide hydrolysis was measured at 410 nm (ε410 =8800M^-1 cm^-1 ; Erlanger et al., Arch. Biochem. Biophys. 95, pp 271-278 (1961)). First order inactivation rate constant (kobs) were obtained from plots of ln (vt /vo) vs time, and the correlation coefficients were greater than 0.98.
^a Inactivation rates were measured at 0.1M Hepes, 0.5 NaCl, pH 7.5,
8-12% Me2 SO and 25° C. by incubation method.
^a Inhibition rates were measured in 0.1M Hepes, 0.05M NaCl, pH 7.5
buffer, 8-9% Me2 SO and at 25° C.
^a Inhibition constants were in 0.1M Hepes, 0.5M NaCl, pH 7.5 buffer,
8-9% Me2 SO and at 25° C.
^a Inhibition rates were measured in 0.1M Hepes, 0.5M NaCl, 2.5%
Me2 SO, pH 7,5 and at 25° C.
^a Inhibition was measured in 0.1M Hepes, 0.5M NaCl, pH 7.5 buffer,
5-10% Me2 SO and at 25° C. Suc--Val--Pro--Phe--NA (0.48 mM)
was used as the substrate for chymotrypsin and cat G.
^a Inhibition rates were measured in 0.1M Hepes, 0.5M NaCl, pH 7.5

The next assay concerns the target chymotrypsin (Bos taurus, UniProt P00766). As to the kind of experiment: Inactivation of chymotrypsin. The class given is biochemical, bovine. As to conditions: read-out: kobs/[I].
Another assay concerns the target T3, cathepsin G (Homo sapiens, UniProt P08311).
T3 construct: from tissue; host or cells: human leukocytes
T3 sequence (P08311 21-255): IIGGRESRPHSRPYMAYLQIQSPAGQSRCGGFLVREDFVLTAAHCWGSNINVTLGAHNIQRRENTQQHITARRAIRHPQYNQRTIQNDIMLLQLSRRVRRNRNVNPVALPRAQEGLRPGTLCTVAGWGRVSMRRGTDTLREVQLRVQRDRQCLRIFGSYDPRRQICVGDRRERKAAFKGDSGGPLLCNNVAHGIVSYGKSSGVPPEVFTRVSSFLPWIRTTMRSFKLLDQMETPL
Nature of the assay: Inactivation of cathepsin G. The class given is biochemical. As to conditions: pH 7.5; Table XII; 2.5% Me2SO, 25° C; [I] 8.7-87 μM; read-out: kobs/[I].

Where [3] appears, read: Table XI, pH 7.5, 25° C, [I] 6.3-600 μM, per line, read-out: kobs/[I].
Setting [4] is: Table XI, pH 7.5, 25° C, [I] 1.4-6.6 μM, per line, read-out: kobs/[I].
The mark [5] stands for this setting: Table XVI, pH 7.5, 25° C, [I] 0.07-710 μM, read-out: kobs/[I].
Where [6] appears, read: Table XVI, pH 7.5, 25° C, [I] 1.7-58 μM.
The mark [7] stands for this setting: pH 7.5, Table XII, 2.5% Me2SO, 25° C, [I] 0.7-1.9 μM, read-out: kobs/[I].

T1 sequence (P00772 27-266): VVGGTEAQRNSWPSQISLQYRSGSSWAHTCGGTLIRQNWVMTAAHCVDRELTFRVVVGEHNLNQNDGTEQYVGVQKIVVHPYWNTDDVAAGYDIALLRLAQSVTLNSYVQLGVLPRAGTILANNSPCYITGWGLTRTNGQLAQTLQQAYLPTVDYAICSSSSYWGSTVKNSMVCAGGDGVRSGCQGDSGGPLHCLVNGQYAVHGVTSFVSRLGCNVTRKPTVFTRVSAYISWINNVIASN

`COc1oc(=O)c2cc(NC(=O)NCC(C)C)ccc2c1Cl`: the values for the kinact/KI in assay [1] (setting [3]) and in assay [2] (setting [4]) were 3200 M⁻¹ s⁻¹ and 20000 M⁻¹ s⁻¹, respectively.

On to `COc1oc(=O)c2cc(NC(=O)CC(CC(=O)O)c3ccccc3)ccc2c1Cl` (stereo not shown) [7-(3-phenylglutaryl)amino-4-chloro-3-methoxyisocoumarin], for which the kinact/KI stood at 3100 M⁻¹ s⁻¹ in assay [1] (setting [3]) and 66000 M⁻¹ s⁻¹ in assay [2] (setting [4]).

Consider `COc1oc(=O)c2cc(NC(=O)N(CCc3ccccc3)Cc3ccccc3)ccc2c1Cl` [7-(N-benzyl-N-phenylethylcarbamoyl)amino-4-chloro-3-methoxyisocoumarin], for which the kinact/KI in assay [1] (setting [3]) came out at 17 M⁻¹ s⁻¹; in assay [2] (setting [4]), 12000 M⁻¹ s⁻¹.

Take `CC(C)(C)OC(=O)N[C@H](Cc1ccccc1)C(=O)Nc1ccc2c(Cl)c(OCCCBr)oc(=O)c2c1` [7-(N-t-butyloxycarbonyl-D-phenylalanyl)amino-4-chloro-3-(3-bromopropoxy)isocoumarin]: the kinact/KI stood at 1480 M⁻¹ s⁻¹ in assay [2] (setting [5]) and 70 M⁻¹ s⁻¹ at chymotrypsin (setting [6]).

As to `CC(C)(C)OC(=O)N[C@@H](Cc1ccccc1)C(=O)Nc1ccc2c(Cl)c(OCCCBr)oc(=O)c2c1` [7-(N-t-butyloxycarbonyl-L-phenylalanyl)amino-4-chloro-3-(3-bromopropoxy)isocoumarin], the figures for the kinact/KI (in assay [2] (setting [5]); on chymotrypsin (setting [6])) were 1320 M⁻¹ s⁻¹ and 490 M⁻¹ s⁻¹, respectively.

Take `CCCOc1oc(=O)c2cc(NC(=O)[C@@H](NC(=O)OC(C)(C)C)C(C)C)ccc2c1Cl` [7-(N-t-butyloxycarbonyl-valyl)amino-4-chloro-3-propyloxyisocoumarin]: the kinact/KI was 64000 M⁻¹ s⁻¹ in assay [2] (setting [7]) and 17 M⁻¹ s⁻¹ at cathepsin G.

Consider `COc1oc(=O)c2cc(NC(=O)C(NS(=O)(=O)c3ccc(C)cc3)c3ccccc3)ccc2c1Cl` (stereo not drawn) [7-(N-tosyl-α-phenylglycyl)amino-4-chloro-3-methoxyisocoumarin], for which the results for the kinact/KI in assay [1] (setting [3]) and in assay [2] (setting [4]) were 1500 M⁻¹ s⁻¹ and 84000 M⁻¹ s⁻¹, respectively.

Turning to `COC(=O)Nc1cccc(C(=O)Nc2ccc3c(Cl)c(OC)oc(=O)c3c2)c1` [7-(m-methoxycarbonylaminobenzoyl)amino-4-chloro-3-methoxyisocoumarin], the kinact/KI in assay [1] (setting [3]) was determined as 2500 M⁻¹ s⁻¹; in assay [2] (setting [4]), 100000 M⁻¹ s⁻¹.

As to `CCCOc1oc(=O)c2cc(NC(=O)c3cccc([N+](=O)[O-])c3)ccc2c1Cl` [7-(m-nitrobenzoyl)amino-4-chloro-3-propyloxyisocoumarin], the kinact/KI was more than 210000 M⁻¹ s⁻¹ in assay [2] (setting [7]) and 4 M⁻¹ s⁻¹ at cathepsin G.

Regarding `COC(=O)c1ccccc1C(=O)Nc1ccc2c(Cl)c(OC)oc(=O)c2c1` [7-(o-methoxyphthalyl)amino-4-chloro-3-methoxyisocoumarin], the kinact/KI in assay [1] (setting [3]) is 7100 M⁻¹ s⁻¹.

Turning to `COc1oc(=O)c2cc(NC(=O)c3ccccc3C(=O)O)ccc2c1Cl` [7-(o-phthalyl)amino-4-chloro-3-methoxyisocoumarin], the kinact/KI stood at 2700 M⁻¹ s⁻¹ in assay [1] (setting [3]) and 52000 M⁻¹ s⁻¹ in assay [2] (setting [4]).

`CCNC(=O)Nc1ccc2c(Cl)c(OC)oc(=O)c2c1` [7-EtNHCONH-4-chloro-3-methoxyisocoumarin, 7-ethylcarbamoylamino-4-chloro-3-methoxyisocoumarin]: the kinact/KI in assay [1] (setting [3]) worked out at 1700 M⁻¹ s⁻¹.

For `CCOC(=O)Nc1ccc2c(Cl)c(OC)oc(=O)c2c1` [7-EtOCONH-4-chloro-3-methoxyisocoumarin, 7-ethoxycarbonylamino-4-chloro-3-methoxyisocoumarin], the kinact/KI worked out at 2000 M⁻¹ s⁻¹ in assay [1] (setting [3]) and 47000 M⁻¹ s⁻¹ in assay [2] (setting [4]).

As to `COc1oc(=O)c2cc(NC(=O)OCC3c4ccccc4-c4ccccc43)ccc2c1Cl` [7-Fmoc-NH-4-chloro-3-methoxyisocoumarin, 7-(9-fluorenylmethoxycarbonyl)amino-4-chloro-3-methoxyisocoumarin], the kinact/KI turned out to be 20 M⁻¹ s⁻¹ in assay [1] (setting [3]) and 10000 M⁻¹ s⁻¹ in assay [2] (setting [4]).

`COc1oc(=O)c2cc(NC(N)=O)ccc2c1Cl` [7-H2 NCONH-4-chloro-3-methoxyisocoumarin, 7-carbamoylamino-4-chloro-3-methoxyisocoumarin]: the kinact/KI in assay [1] (setting [3]) turned out to be 2100 M⁻¹ s⁻¹.

Regarding `COc1oc(=O)c2cc(N=C=O)ccc2c1Cl` [7-NCO-4-chloro-3-methoxyisocoumarin, 7-isocyanato-4-chloro-3-methoxyisocoumarin], the kinact/KI is 650 M⁻¹ s⁻¹ in assay [1] (pH 7.5, read-out: kobs/[I]) and 9200 M⁻¹ s⁻¹ in assay [2] (pH 7.5, read-out: kobs/[I]).

As for `COc1oc(=O)c2cc(NC(=O)Nc3ccccc3)ccc2c1Cl` [7-PhNHCONH-4-chloro-3-methoxyisocoumarin, 7-phenylcarbamoylamino-4-chloro-3-methoxyisocoumarin], the kinact/KI in assay [1] (setting [3]) amounted to 7300 M⁻¹ s⁻¹; in assay [2] (setting [4]), 49000 M⁻¹ s⁻¹.

For `COc1oc(=O)c2cc(NC(=O)Oc3ccccc3)ccc2c1Cl` [7-PhOCONH-4-chloro-3-methoxyisocoumarin, 7-phenoxycarbonylamino-4-chloro-3-methoxyisocoumarin], the kinact/KI in assay [1] (pH 7.5, read-out: kobs/[I]) amounted to 850 M⁻¹ s⁻¹; in assay [2] (pH 7.5, read-out: kobs/[I]) it was 13000 M⁻¹ s⁻¹.

For the molecule `CCCOc1oc(=O)c2cc(NC(=O)CSC)ccc2c1Cl` [7-[(2-thiomethyl)acetyl]amino-4-chloro-3-propyloxyisocoumarin], the kinact/KI in assay [2] (setting [7]) is more than 152000 M⁻¹ s⁻¹; at cathepsin G, 28 M⁻¹ s⁻¹.

`COc1oc(=O)c2cc(NC(=O)OCc3ccccc3)ccc2c1Cl` [7-benzyloxycarbonylamino-4-chloro-3-methoxyisocoumarin]: the kinact/KI worked out at 260 M⁻¹ s⁻¹ in assay [1] (setting [3]) and 71000 M⁻¹ s⁻¹ in assay [2] (setting [4]).

Consider `CCCOc1oc(=O)c2cc(NC(=S)NCc3ccccc3)ccc2c1Cl` [7-benzylthiocarbamoylamino-4-chloro-3-propyloxyisocoumarin], for which the kinact/KI in assay [2] (setting [7]) was more than 131000 M⁻¹ s⁻¹.

`O=C(CCc1ccccc1)Nc1ccc2c(Cl)c(OCCCBr)oc(=O)c2c1` [7-dihydrocinnamoylamino-4-chloro-3-(3-bromopropoxy)isocoumarin]: the kinact/KI in assay [2] (pH 7.5, Table XVI, biphasic plot, read-out: kobs/[I] (biphasic, first value)) came to 35600 M⁻¹ s⁻¹; in assay [2] (pH 7.5, Table XVI, biphasic plot, read-out: kobs/[I] (biphasic, second value)), 9870 M⁻¹ s⁻¹; at chymotrypsin (setting [6]), 600 M⁻¹ s⁻¹.

Take `CCOC(=O)Nc1ccc2c(Cl)c(OCC)oc(=O)c2c1` [7-ethoxycarbonylamino-4-chloro-3-ethoxyisocoumarin]: in assay [1] (setting [3]), the kinact/KI came out at 3500 M⁻¹ s⁻¹.

For `CCNC(=S)Nc1ccc2c(Cl)c(OCC)oc(=O)c2c1` [7-ethylthiocarbamoylamino-4-chloro-3-ethoxyisocoumarin], the kinact/KI in assay [1] (setting [3]) was found to be 4200 M⁻¹ s⁻¹.

As for `COc1oc(=O)c2cc(NC(=O)C(F)(F)C(F)(F)C(F)(F)F)ccc2c1Cl` [7-heptafluorobutyroylamino-4-chloro-3-methoxyisocoumarin], the kinact/KI in assay [1] (pH 7.5, read-out: kobs/[I]) is 1100 M⁻¹ s⁻¹; in assay [2] (pH 7.5, read-out: kobs/[I]) it was 47000 M⁻¹ s⁻¹.

Take `COc1oc(=O)c2cc(NC(=O)NC(C)C)ccc2c1Cl` [7-isopropylcarbamoylamino-4-chloro-3-methoxyisocoumarin]: the results for the kinact/KI in assay [1] (setting [3]) and in assay [2] (setting [4]) were 2300 M⁻¹ s⁻¹ and 9000 M⁻¹ s⁻¹, respectively.

Take `COC(=O)CCCC(=O)Nc1ccc2c(Cl)c(OC)oc(=O)c2c1` [7-methoxyglutarylamino-4-chloro-3-methoxyisocoumarin]: the results for the kinact/KI in assay [1] (setting [3]) and in assay [2] (setting [4]) were 2800 M⁻¹ s⁻¹ and 54000 M⁻¹ s⁻¹, respectively.

Take `COC(=O)CCC(=O)Nc1ccc2c(Cl)c(OC)oc(=O)c2c1` [7-methoxysuccinylamino-4-chloro-3-methoxyisocoumarin]: the kinact/KI came out at 2200 M⁻¹ s⁻¹ in assay [1] (setting [3]) and 43000 M⁻¹ s⁻¹ in assay [2] (setting [4]).

In the case of `CNC(=O)Nc1ccc2c(Cl)c(OC)oc(=O)c2c1` [7-methylcarbamoylamino-4-chloro-3-methoxyisocoumarin], the kinact/KI turned out to be 1300 M⁻¹ s⁻¹ in assay [1] (setting [3]) and 9460 M⁻¹ s⁻¹ in assay [2] (setting [4]).

With `O=C(Nc1ccccc1)Nc1ccc2c(Cl)c(OCCBr)oc(=O)c2c1` [7-phenylcarbamoylamino-4-chloro-3-(2-bromoethoxy)isocoumarin], the kinact/KI in assay [1] (Table XVI, pH 7.5, 25° C, [I] 0.04-2.0 mM, read-out: kobs/[I]) came to 36 M⁻¹ s⁻¹; in assay [2] (pH 7.5, Table XVI, second order, equimolar inhibitor and enzyme, read-out: kobs/[I]) it was 1.2e+06 M⁻¹ s⁻¹; on chymotrypsin (setting [6]) it was 12 M⁻¹ s⁻¹.

Consider `CCCOc1oc(=O)c2cc(NC(=O)Nc3ccccc3)ccc2c1Cl` [7-phenylcarbamoylamino-4-chloro-3-propyloxyisocoumarin], for which the kinact/KI turned out to be 520 M⁻¹ s⁻¹ in assay [1] (pH 7.5, Table XII, 2.5% Me2SO, 25° C, [I] 34-56 μM, read-out: kobs/[I]); 143000 M⁻¹ s⁻¹ in assay [2] (setting [7]); 6100 M⁻¹ s⁻¹ on chymotrypsin (pH 7.5, Table XII, 2.5% Me2SO, 25° C, [I] 3.4-70 μM).

Take `CCOc1oc(=O)c2cc(NC(=S)Nc3ccccc3)ccc2c1Cl` [7-phenylthiocarbamoylamino-4-chloro-3-ethoxyisocoumarin]: in assay [1] (setting [3]), the kinact/KI came out at 12000 M⁻¹ s⁻¹.

Turning to `CCCOc1oc(=O)c2cc(NC(=S)Nc3ccccc3)ccc2c1Cl` [7-phenylthiocarbamoylamino-4-chloro-3-propyloxyisocoumarin], the kinact/KI in assay [2] (setting [7]) was more than 166000 M⁻¹ s⁻¹.
